The test relates to feline calicivirus. As to the kind of experiment: Antiviral activity value (Mv) by methods of JIS L 1922, plaque count measurement of virus infectivity. The method, then:
The performance of each of the above antiviral agents was evaluated by applying methods shown in JIS L 1922 (antiviral property test method of fiber product), and an antiviral activity value (Mv) obtained was used to determine the antiviral property. […] Purified water was added to the antiviral agent so that its concentration was 0.1% by mass. Next, 100 μL of feline calicivirus solution having a virus infectivity of 1 to 5×10^7 PFU/mL was added to 900 μL of the above liquid, and a mixed liquid was allowed to stand at a temperature of 25° C. for 2 hours. Thereafter, the mixed liquid was recovered, and the recovered liquid was subjected to a plaque count measurement method to measure the virus infectivity. The virus infectivity was measured in the same manner as the test sample except that 900 μL of phosphate buffered saline (PBS) was used as a control sample instead of the test sample. The performance of the antiviral agent was evaluated by the antiviral activity value (Mv) obtained by the following formula. Mv=Log (virus infectivity of control sample)−Log (virus infectivity of test sample)

Turning to `[Ca+2].[OH-].[OH-]` [V3, calcium hydroxide], the “Antiviral activity value Mv” value was found to be 4.2 and the “antiviral properties (assessment in words)” value is listed as “excellent antiviral properties”.

For the origin of these results see patent US20210386071A1, “ANTI-NON-ENVELOPED VIRUS AGENT AND COMPOSITION CONTAINING SAME, AND ANTI-VIRAL PRODUCT AND METHOD FOR PRODUCING SAME” (TOAGOSEI CO., LTD., priority 2018, published 2021).
